# System: 4 PI3K isoforms (Human recombinant GST-PI3K)
# Experiment: PI3K scintillation proximity assay, best IC50 obtained with the four isoforms (alpha, beta, delta, gamma)
# Assay type: biochemical
# Details: for IC50: best IC50 obtained with the four isoforms of PI3K, read-out: Best potency measured on the 4 PI3K isoforms; for Best potency measured on the 4 PI3K isoforms, % inh @20 μM: inhibition at 20 μM
SMILES,IC50 [nM],"Best potency measured on the 4 PI3K isoforms, % inh @20 μM [% inh @20 μM]"
"O=C(c1nn(-c2cccc(Cn3ccnc3)c2)c2c1CS(=O)(=O)c1ccccc1-2)N1CCOCC1 [Example 291, 1-[3-(1H-imidazol-1-ylmethyl)phenyl]-3-(morpholin-4-ylcarbonyl)-1,4-dihydrothiochromeno[4,3-c]pyrazole 5,5-dioxide]",673,
"O=C(c1nn(-c2cccc(Cn3cccn3)c2)c2c1CS(=O)(=O)c1ccccc1-2)N1CCOCC1 [Example 292, 3-(Morpholin-4-ylcarbonyl)-1-[3-(1H-pyrazol-1-ylmethyl)phenyl]-1,4-dihydrothiochromeno[4,3-c]pyrazole 5,5-dioxide]",488,
"O=C(c1nn(C2CCCN(C3CCOCC3)C2)c2c1CS(=O)(=O)c1ccccc1-2)N1CCOCC1 (stereo not drawn) [Example 293, 3-(Morpholin-4-ylcarbonyl)-1-[1-(tetrahydro-2H-pyran-4-yl)piperidin-3-yl]-1,4-dihydrothiochromeno[4,3-c]pyrazole 5,5-dioxide]",254,
"Cc1nc(CN2CCCC(n3nc(C(=O)N4CCOCC4)c4c3-c3ccccc3S(=O)(=O)C4)C2)no1 (stereo not drawn) [Example 295, 1-{1-[(5-Methyl-1,2,4-oxadiazol-3-yl)methyl]piperidin-3-yl}-3-(morpholin-4-ylcarbonyl)-1,4-dihydrothiochromeno[4,3-c]pyrazole 5,5-dioxide]",134,
"O=C(c1nn(C2CCCN(CCCn3cccc3)C2)c2c1CS(=O)(=O)c1ccccc1-2)N1CCOCC1 (stereo not drawn) [Example 296, 3-(Morpholin-4-ylcarbonyl)-1-{1-[3-(1H-pyrrol-1-yl)propyl]piperidin-3-yl}-1,4-dihydrothiochromeno[4,3-c]pyrazole 5,5-dioxide]",90,
"O=C(c1nn(C2CCCN(CCn3ccnc3)C2)c2c1CS(=O)(=O)c1ccccc1-2)N1CCOCC1 (stereo not drawn) [Example 297, 1-{1-[2-(1H-Imidazol-1-yl)ethyl]piperidin-3-yl}-3-(morpholin-4-ylcarbonyl)-1,4-dihydrothiochromeno[4,3-c]pyrazole 5,5-dioxide]",52,
"O=C(c1nn(C2CCN(C3CCOCC3)C2)c2c1CS(=O)(=O)c1c(F)cccc1-2)N1CCOCC1 (stereo not drawn) [Example 298, 6-Fluoro-3-(morpholin-4-ylcarbonyl)-1-[1-(tetrahydro-2H-pyran-4-yl)pyrrolidin-3-yl]-1,4-dihydrothiochromeno[4,3-c]pyrazole 5,5-dioxide]",29,
"CC(=O)OCCN1CCC(n2nc(C(=O)N3CCOCC3)c3c2-c2ccccc2S(=O)(=O)C3)C1 (stereo not drawn) [Example 299, 2{3-[3-(Morpholin-4-ylcarbonyl)-5,5-dioxidothiochromeno[4,3-c]pyrazol-1(4H)-yl]pyrrolidin-1-yl)ethyl acetate]",871,
"O=C(c1nn(C2CCN(C3CCOCC3)C2)c2c1CS(=O)(=O)c1ccccc1-2)N1CCOCC1 (stereo not drawn) [Example 300, 3-(Morpholin-4-ylcarbonyl)-1-[1-(tetrahydro-2H-pyran-4-yl)pyrrolidin-3-yl]-1,4-dihydrothiochromeno[4,3-c]pyrazole 5,5-dioxide]",77,
"O=C(c1nn(C2CCCN(CCC3CCOCC3)C2)c2c1CS(=O)(=O)c1c(Cl)cccc1-2)N1CCOCC1 (stereo not drawn) [Example 301, 6-Chloro-3-(morpholin-4-ylcarbonyl)-1-{1-[2-(tetrahydro-2H-pyran-4-yl)ethyl]piperidin-3-yl}-1,4-dihydrothiochromeno[4,3-c]pyrazole 5.5-dioxide]",38,
"O=C(c1nn(C2CCN(CCC3CCOCC3)C2)c2c1CS(=O)(=O)c1c(F)cccc1-2)N1CCOCC1 (stereo not drawn) [Example 302, 6-Fluoro-3-(morpholin-4-ylcarbonyl)-1-{1-[2-(tetrahydro-2H-pyran-4-yl)ethyl]pyrrolidin-3-yl}-1,4-dihydrothiochromeno[4,3-c]pyrazole 5,5-dioxide]",21,
"O=C(c1nn(C2CCN(CC3CCOC3)C2)c2c1CS(=O)(=O)c1ccccc1-2)N1CCOCC1 (stereo not drawn) [Example 303, 3-(Morpholin-4-ylcarbonyl)-1-[1-(tetrahydrofuran-3-ylmethyl)pyrrolidin-3-yl]-1,4-dihydrothiochromeno[4,3-c]pyrazole 5,5-dioxide]",353,
"O=C(c1nn(C2CCN(CC3CCOC3)C2)c2c1CS(=O)(=O)c1c(F)cccc1-2)N1CCOCC1 (stereo not drawn) [Example 304, 6-Fluoro-3-(morpholin-4-ylcarbonyl)-1-[1-(tetrahydrofuran-3-ylmethyl)pyrrolidin-3-yl]-1,4-dihydrothiochromeno[4,3-c]pyrazole 5,5-dioxide]",57,
"O=C(c1nn(C2CCCN(CC3CCOCC3)C2)c2c1CS(=O)(=O)c1ccccc1-2)N1CCOCC1 (stereo not drawn) [Example 305, 3-(morpholin-4-ylcarbonyl)-1-[1-(tetrahydro-2H-pyran-4-ylmethyl)piperidin-3-yl]-1,4-dihydrothiochromeno[4,3-c]pyrazole 5,5-dioxide]",11,
"O=C(c1nn(C2CCN(CCN3CC[C@@H](F)C3)C2)c2c1CS(=O)(=O)c1ccccc1-2)N1CCOCC1 (stereo partly drawn) [Example 308, 1-(1-{2-[(3R)-3-Fluoropyrrolidin-1-yl]ethyl}pyrrolidin-3-yl)-3-(morpholin-4-ylcarbonyl)-1,4-dihydrothiochromeno[4,3-c]pyrazole 5,5-dioxide]",120,
"O=C(c1nn(C2CCCN(CCN3CCOCC3)C2)c2c1CS(=O)(=O)c1c(Cl)cccc1-2)N1CCOCC1 (stereo not drawn) [Example 309, 6-Chloro-3-(morpholin-4-ylcarbonyl)-1-[1-(2-morpholin-4-ylethyl)piperidin-3-yl]-1,4-dihydrothiochromeno[4,3-c]pyrazole 5,5-dioxide]",120,
"O=C(c1nn(C2CCN(CCN3CC[C@H](F)C3)C2)c2c1CS(=O)(=O)c1ccccc1-2)N1CCOCC1 (stereo partly drawn) [Example 310, 1-(1-{2-[(3S)-3-Fluoropyrrolidin-1-yl]ethyl}pyrrolidin-3-yl)-3-(morpholin-4-ylcarbonyl)-1,4-dihydrothiochromeno[4,3-c]pyrazole 5,5-dioxide]",192,
"O=C(c1nn(C2CCN(CCN3CC(F)(F)C3)C2)c2c1CS(=O)(=O)c1ccccc1-2)N1CCOCC1 (stereo not drawn) [Example 311, 1-{1-[2-(3,3-Difluoroazetidin-1-yl)ethyl]pyrrolidin-3-yl}-3-(morpholin-4-ylcarbonyl)-1,4-dihydrothiochromeno[4,3-c]pyrazole 5,5-dioxide]",156,
"CC(C)c1ccccc1-n1nc(C(=O)N2CCOCC2)c2c1-c1ccccc1S(=O)(=O)C2 [Example 312, 1-(2-Isopropylphenyl)-3-(morpholin-4-ylcarbonyl)-1,4-dihydrothiochromeno[4,3-c]pyrazole 5,5-dioxide]",,47
"COc1ccccc1-n1nc(C(=O)N2CCOCC2)c2c1-c1ccccc1S(=O)(=O)C2 [Example 313, 1-(2-Methoxyphenyl)-3-(morpholin-4-ylcarbonyl)-1,4-dihydrothiochromeno[4,3-c]pyrazole 5,5-dioxide]",14800,

SMILES,IC50 [nM],"Best potency measured on the 4 PI3K isoforms, % inh @20 μM [% inh @20 μM]"
CS(=O)(=O)c1ccccc1-n1nc(C(=O)N2CCOCC2)c2c1-c1ccccc1S(=O)(=O)C2 [Example 314],,45
"O=C(c1nn(C2CCOCC2)c2c1C(F)S(=O)(=O)c1ccccc1-2)N1CCOCC1 (stereo not drawn) [Example 316, 4-Fluoro-3-(morpholin-4-ylcarbonyl)-1-(tetrahydro-2H-pyran-4-yl)-1,4-dihydrothiochromeno[4,3-c]pyrazole 5,5-dioxide]",9800,
COc1ccc(C(=O)Cn2nc(C(=O)N3CCOCC3)c3c2-c2ccccc2S(=O)(=O)C3)cc1 [Example 317],14500,
O=C(Nc1cccc2c1S(=O)(=O)Cc1c(C(=O)N3CCOCC3)nn(-c3ccccc3)c1-2)c1ccccc1 [Example 318],,10
O=C(c1nn(-c2ccccc2)c2c1CS(=O)(=O)c1c(CN3CCCCC3)cccc1-2)N1CCOCC1 [Example 319],,33
CN(C)Cc1cccc2c1S(=O)(=O)Cc1c(C(=O)N3CCOCC3)nn(-c3ccccc3)c1-2 [Example 320],,32
CC1CC(C)CC(n2nc(C(=O)N3CCOCC3)c3c2-c2ccccc2S(=O)(=O)C3)C1 (stereo not drawn) [Example 321],7960,
CC(=O)Nc1cccc2c1S(=O)(=O)Cc1c(C(=O)N3CCOCC3)nn(-c3ccccc3)c1-2 [Example 322],9880,
O=C(c1nn(-c2ccccc2)c2c1CS(=O)(=O)c1c(-c3ccccc3)cccc1-2)N1CCOCC1 [Example 323],17900,
O=C(c1nn(-c2cccc(-c3ncon3)c2)c2c1CS(=O)(=O)c1ccccc1-2)N1CCOCC1 [Example 324],6690,
O=C(c1nn(-c2cccc(-c3nn[nH]n3)c2)c2c1CS(=O)(=O)c1ccccc1-2)N1CCOCC1 [Example 325],,19
CCCCNc1ccc2c(c1)S(=O)(=O)Cc1c(C(=O)N3CCOCC3)nn(-c3ccccc3)c1-2 [Example 326],9790,
COCCNc1ccc2c(c1)S(=O)(=O)Cc1c(C(=O)N3CCOCC3)nn(-c3ccccc3)c1-2 [Example 327],6610,
O=C(c1nn(-c2ccc(-c3ccccc3)cc2)c2c1CS(=O)(=O)c1ccccc1-2)N1CCOCC1 [Example 328],10300,
O=C(c1nn(-c2ccccc2)c2c1CS(=O)(=O)c1cc(CN3CCOCC3)ccc1-2)N1CCOCC1 [Example 329],,23
"O=C(c1nn(-c2ccccc2)c2c1C[S+]([O-])c1ccccc1-2)N1CCOCC1 (stereo not drawn) [Example 330, 3-(Morpholin-4-ylcarbonyl)-1-phenyl-1,4-dihydrothiochromeno[4,3-c]pyrazole 5-oxide]",,18
CC(C)CC1COCCN1C(=O)c1nn(-c2ccccc2)c2c1CS(=O)(=O)c1ccccc1-2 (stereo not drawn) [Example 332],,15
"O=C(c1nn(-c2ccccc2)c2c1CS(=O)(=O)c1ccccc1-2)N1CCOC(CO)C1 (stereo not drawn) [Example 333, {4-[(5,5-Dioxido-1-phenyl-1,4-dihydrothiochromeno[4,3-c]pyrazol-3-yl)carbonyl]morpholin-2-yl}methanol]",6530,
"O=C(c1nn(-c2ccccc2)c2c1CS(=O)(=O)c1ccccc1-2)N1CCCOCC1 [Example 334, 3-(1,4-Oxazepan-4-ylcarbonyl)-1-phenyl-1,4-dihydrothiochromeno[4,3-c]pyrazole 5,5-dioxide]",9070,
